Some test systems named below: OVCAR-8; HCT-15; IGROV-1; M14; KM12; MOLT-4; A549; SR; CAKI-1; SF-539; ACHN; A498; SF-295; NCI-H522; TK-10; HT-29; SF-268; U-251; HOP-92.
Common to all, as to test: NCI anticancer screen, dose series, 48 h

We go through 12 compounds from ChEMBL document CHEMBL1201862, “PubChem BioAssay data set” (2004).

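Test compounds were applied to cells in 96-well plates for 48 hours at 5 doses. Abbreviation: GI50, concentration required for 50% inhibition of growth.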 The source made the active and inactive calls. Rule as the data show it: active = GI50 up to about 1.1 µM and inactive = higher. Some results are limits rather than exact numbers.

As to `Cc1cccc(NS(=O)(=O)c2ccc3c(c2)OCCOCCOCCOCCO3)c1`, the GI50 with OVCAR-8 was > 100 µM (inactive); with HCT-15 it was greater than 100 µM; in the assay on IGROV-1, > 100 µM (inactive); with M14, > 100 µM (inactive); in the assay with KM12, > 100 µM (inactive); in the assay with MOLT-4, 63 µM (inactive). For the same compound, the GI50 in the assay with A549 is > 100 µM (inactive); with SR, 53 µM (inactive); in the assay with CAKI-1 it was > 100 µM (inactive); with SF-539, > 100 µM (inactive); in the assay with ACHN, > 100 µM (inactive); in the assay on A498 it was > 100 µM (inactive). In addition, the GI50 in the assay on SF-295 was > 100 µM (inactive); with NCI-H522 it was 16.1 µM (inactive); with TK-10, > 100 µM (inactive); with HT-29 it was > 100 µM (inactive); with SF-268 it was > 100 µM (inactive).
In the case of `O=c1[nH][nH]c(=O)[nH]1`, the GI50 was greater than 100 µM with HCT-15; > 100 µM (inactive) in the assay with IGROV-1; > 100 µM (inactive) with M14; > 100 µM (inactive) with KM12; > 100 µM (inactive) with MOLT-4; > 100 µM (inactive) in the assay with A549. Further, the GI50 with SR, with CAKI-1, in the assay with SF-539, in the assay on U-251, in the assay on SF-295 and in the assay on NCI-H522 was > 100 µM (inactive) in each case. Moreover, the GI50 in the assay with HOP-92, with TK-10, in the assay on HT-29 and with SF-268 was > 100 µM (inactive) in each case.
For the compound `COC(=O)c1ccccc1C1=C([N+](=O)[O-])C(c2cccc(Br)c2)C(C#N)=C(N)O1` (configuration not stated), the GI50 in the assay with OVCAR-8 was 21 µM (inactive); with HCT-15, 19.4 µM; with IGROV-1, 27.8 µM (inactive); in the assay on M14 it was 28 µM (inactive); in the assay with KM12 it was > 10 µM (inactive); with MOLT-4 it was 25.4 µM (inactive). Besides, the GI50 is > 100 µM (inactive) with A549; 18.2 µM (inactive) in the assay with SR; 61 µM (inactive) with SF-539; > 100 µM (inactive) in the assay with U-251; 23.6 µM (inactive) with ACHN; > 100 µM (inactive) in the assay on SF-295. Besides, the GI50 in the assay with NCI-H522 is 13.6 µM (inactive); in the assay on HOP-92, 21.5 µM (inactive); with TK-10, 46.5 µM (inactive); in the assay on HT-29, 43.5 µM (inactive); with SF-268 it was 25.8 µM (inactive).
In the case of `C/C(Nc1ccc(Cl)cc1Cl)=C1/CCOC1=O`, the GI50 in the assay with OVCAR-8 was 48.3 µM (inactive); in the assay with HCT-15, greater than 100 µM; in the assay on IGROV-1, > 100 µM (inactive); in the assay on KM12 it was > 100 µM (inactive); with MOLT-4, 87.3 µM (inactive); with A549 it was 78.7 µM (inactive). Besides, the GI50 in the assay with SR is > 100 µM (inactive); in the assay with SF-539, 25.7 µM (inactive); with U-251, 27.2 µM (inactive); with ACHN, 92.9 µM (inactive); in the assay with A498 it was 59.8 µM (inactive); in the assay with SF-295 it was 26.6 µM (inactive). The GI50 is 86.5 µM (inactive) in the assay with NCI-H522; 22.8 µM (inactive) with HOP-92; 56.4 µM (inactive) with TK-10; > 100 µM (inactive) in the assay on HT-29; 30.8 µM (inactive) in the assay on SF-268.
For the compound `Cc1nnc2n1-c1ccccc1C(=S)N1CSCC21` (configuration not stated), the GI50 is > 100 µM (inactive) with OVCAR-8; 79.3 µM in the assay with HCT-15; > 100 µM (inactive) in the assay on IGROV-1; > 100 µM (inactive) in the assay with M14; > 100 µM (inactive) with KM12; > 100 µM (inactive) with MOLT-4. Also, the GI50 with A549, with SR, in the assay on CAKI-1, in the assay on U-251, in the assay with ACHN and in the assay with A498 was > 100 µM (inactive) in each case. Moreover, the GI50 in the assay on SF-295, in the assay on NCI-H522, in the assay on TK-10, with HT-29 and with SF-268 was > 100 µM (inactive) in each case.
Regarding `O=C(O)C/N=C(\C(=N\CC(=O)O)c1ccccc1)c1ccccc1`, the GI50 is > 100 µM (inactive) in the assay on OVCAR-8; greater than 100 µM in the assay with HCT-15; > 100 µM (inactive) in the assay on M14; > 100 µM (inactive) with KM12; > 100 µM (inactive) in the assay on MOLT-4; > 100 µM (inactive) in the assay on A549. The GI50 in the assay on SR, with CAKI-1, with U-251, in the assay on ACHN, in the assay with A498 and in the assay on SF-295 was > 100 µM (inactive) throughout. In addition, the GI50 with NCI-H522, with TK-10 and in the assay with SF-268 was > 100 µM (inactive) throughout.
As for `CCN(CC)C(=O)Cn1c(C)cc2ccccc21`, the GI50 in the assay with OVCAR-8 was > 100 µM (inactive); in the assay on HCT-15, greater than 100 µM; with IGROV-1 it was > 100 µM (inactive); in the assay with M14, > 100 µM (inactive); in the assay with KM12 it was > 100 µM (inactive); in the assay with MOLT-4 it was > 100 µM (inactive). Further, the GI50 with A549, in the assay on SR, with CAKI-1, with SF-539, in the assay with U-251 and in the assay on ACHN was > 100 µM (inactive) in each case. Also, the GI50 in the assay with SF-295, in the assay with NCI-H522, in the assay on HOP-92, in the assay with TK-10, with HT-29 and in the assay with SF-268 was > 100 µM (inactive) each time.
`C/C(=C\c1ccc(Cl)c(Cl)c1)[N+](=O)[O-]`: the GI50 in the assay on OVCAR-8 is 1.13 µM (inactive); in the assay on HCT-15, 1.35 µM; with IGROV-1 it was 2.16 µM (inactive); with M14, 0.738 µM (active); in the assay with KM12 it was 2.02 µM (inactive); with MOLT-4 it was 0.398 µM (active). Moreover, the GI50 with A549 is 1.89 µM (inactive); with SR, 0.685 µM (active); in the assay on SF-539 it was 2.03 µM (inactive); in the assay on U-251, 1.71 µM (inactive); in the assay with ACHN, 1.98 µM (inactive); in the assay with A498, 4.4 µM (inactive). Besides, the GI50 in the assay on SF-295 is 3.68 µM (inactive); in the assay with NCI-H522 it was 1.63 µM (inactive); with TK-10, 1.86 µM (inactive); in the assay with HT-29, 3.78 µM (inactive); in the assay with SF-268, 1.4 µM (inactive).
With `CCOC(=O)c1[nH]c(Br)c(-c2ccc(OC)c(OC)c2)c1Br`, the GI50 in the assay on OVCAR-8 is 0.0423 µM (active); in the assay on HCT-15, 0.0527 µM; in the assay on IGROV-1 it was 0.0552 µM (active); with M14, 0.028 µM (active); with KM12, 0.0303 µM (active); in the assay with MOLT-4, 0.0262 µM (active). Moreover, the GI50 in the assay with A549 was 0.287 µM (active); in the assay on SR, 0.0214 µM (active); with U-251 it was 0.0311 µM (active); in the assay on ACHN it was 0.0242 µM (active); in the assay on A498, 0.0187 µM (active); in the assay on SF-295 it was 0.00975 µM (active). The GI50 is 0.00991 µM (active) with NCI-H522, 7.46 µM (inactive) in the assay with HOP-92, 14 µM (inactive) in the assay with TK-10 and 0.178 µM (active) with SF-268.
As for `Cc1c(O)c(=O)ccn1CCc1c[nH]c2ccccc12`, the GI50 was 8.39 µM (inactive) in the assay on OVCAR-8; 0.397 µM with HCT-15; 7.48 µM (inactive) in the assay with M14; 22 µM (inactive) in the assay on KM12; 8.2 µM (inactive) in the assay with MOLT-4; 9.35 µM (inactive) in the assay on A549. In addition, the GI50 is 5.73 µM (inactive) with SR; 1.21 µM (inactive) in the assay with CAKI-1; 19.7 µM (inactive) with SF-539; 6.55 µM (inactive) in the assay with U-251; 3.08 µM (inactive) in the assay on ACHN; 3.93 µM (inactive) with SF-295. For the same compound, the GI50 in the assay with HOP-92 was 0.483 µM (active); in the assay on TK-10, 4.81 µM (inactive); in the assay on HT-29, 3.75 µM (inactive); in the assay on SF-268 it was 2.44 µM (inactive).
Consider `N#Cc1c(C#N)c(-c2ccccc2)n(-c2ccccc2)c1N`, for which the GI50 was > 100 µM (inactive) with OVCAR-8; greater than 100 µM in the assay on HCT-15; 88.5 µM (inactive) in the assay with IGROV-1; > 100 µM (inactive) with M14; > 100 µM (inactive) in the assay with KM12; 60.3 µM (inactive) in the assay with MOLT-4. In addition, the GI50 in the assay on A549 is > 100 µM (inactive); in the assay with SR it was 73.8 µM (inactive); in the assay on CAKI-1 it was > 100 µM (inactive); in the assay with SF-539 it was 20.2 µM (inactive); in the assay on U-251, 33.4 µM (inactive); in the assay with ACHN, 50.7 µM (inactive). The GI50 was > 100 µM (inactive) in the assay with A498; 15.3 µM (inactive) in the assay with SF-295; 41.9 µM (inactive) in the assay with NCI-H522; > 100 µM (inactive) in the assay with TK-10; > 100 µM (inactive) with HT-29; 88.3 µM (inactive) in the assay on SF-268.
For the compound `O=c1c2nc[nH]c2n(-c2ccccc2)c(=S)n1-c1ccccc1`, the GI50 with OVCAR-8 is > 100 µM (inactive); in the assay on HCT-15, greater than 100 µM; with IGROV-1, > 100 µM (inactive); in the assay on M14, > 100 µM (inactive); in the assay on KM12, > 100 µM (inactive); in the assay with MOLT-4, > 100 µM (inactive). For the same compound, the GI50 in the assay with A549, in the assay on SR, in the assay with CAKI-1, in the assay on SF-539, in the assay on U-251 and with ACHN was > 100 µM (inactive) in each case. For the same compound, the GI50 in the assay with A498, in the assay on SF-295, in the assay on NCI-H522, with TK-10, in the assay with HT-29 and with SF-268 was > 100 µM (inactive) each time.
